The values that follow are results of earlier work, collected in US20260273108A1, “USE OF ACRYLIC ACID-CONTAINING POLYMERS FOR MOLECULAR IMAGING OF TARGET PROTEINS” (The Johns Hopkins University, priority 2023, published 2026).

For series [1] the following is noted: bolus intravenous injection in humans.
The conditions of series [2]: for Radio frequency: radiofrequency for saturation (CEST).
For series [3] the following is noted: IV dose for rodents.
Setting [4] is: water-exchanging protons at a pH of 7-7.4 and temperature of 36-67° C.

Where two headings read alike, the source gives them in different places. Marks after values point to notes of the source that are not given here.

Turning to `Nc1ccc(C(=O)O)c(O)c1` [4-Aminosalicylate], in series [1], the “IV Dose” value is 2.33 mmol/kg. Further, the Exchange rate kex result in series [2] (setting [4]) was “N/A, 1,200 s^−1”.
With `C[C@H](N)C(=O)O` [Alanine], the “IV Dose” value in series [1] is 5.61 mmol/kg. In addition, the Radio frequency in series [2] was 3.0 ppm. Further, the Exchange rate kex in series [2] (setting [4]) is 7,670 s^−1.
In the case of `N=C(N)NCCC[C@H](N)C(=O)O` [Arginine], the Radio frequency in series [2] is reported as 1.8-2.0 ppm. In addition, in series [2] (setting [4]), the Exchange rate kex is given as 1,200 s^−1.
Consider `O=C1CC(=O)NC(=O)N1` [Barbituric acid], for which, in series [3], the “IV Dose” value is 1.56* mmole/kg. The Radio frequency in series [2] is 5.0 ppm.
Take `N[C@H]1C(O)O[C@H](CO)[C@@H](O)[C@@H]1O` (stereo partly drawn) [Glucosamine]: the “IV Dose” value in series [1] was 1.86 mmol/kg. For the same compound, the Exchange rate kex in series [2] (exchange rates for glucose, pH of 7-7.4 and temperature of 36-67° C.) is given as 2,900-14,000^# s^−1. Further, the Radio frequency in series [2] is 1.2 ppm.
`O=c1ccn([C@@H]2O[C@H](CO)[C@@H](O)[C@H]2O)c(=O)[nH]1` [Uridine]: in series [1], the “IV Dose” value is 1.43 mmol/kg. Moreover, the Radio frequency in series [2] is on record as 6.3-6.4 ppm. Also, the Exchange rate kex in series [2] (setting [4]) is 3080 s⁻¹.
